According to patent US20240180915A1, “OIL-IN-WATER EMULSION OF 6-ETHOXY-7-METHOXY-2-(2-[…])-3,L-BENZOXAZIN-4-ONE” (SIXERA PHARMA AB, priority 2021, published 2024):

Legend:
[1] = Solubility of the active in water and organic solvents (statement); format: physicochemical
Description: However, such organic solvents are unsuitable for use in topical formulations for treatment of skin disease.

[2] = Initial formulation attempts with common solvents and excipients: crystal formation upon storage; format: physicochemical; conditions: common pharmaceutically acceptable solvents and excipients
Description: Accordingly, further development was needed to arrive at a stable topical formulation where crystal formation of 6-ethoxy-7-methoxy-2-(2-methylsulfanylphenyl)-3,1-benzoxazin-4-one can be avoided.

- Solubility in water ([1]; water): low solubility in water
SMILES: CCOc1cc2c(=O)oc(-c3ccccc3SC)nc2cc1OC [6-Ethoxy-7-methoxy-2-(2-methylsulfanylphenyl)-3,1-benzoxazin-4-one]
- Solubility in organic solvents ([1]; various organic solvents): can be dissolved in various organic solvents
- Crystal formation upon storage of the formulation [2]: form needle shaped crystals upon storage of the formulation
